The values that follow come from patent publication US10543183B2, “Treatment and diagnosis of melanoma” (The Rockefeller University, priority 2012, dated 2020).

Assay [1] deals with endothelial cells (HUVEC). The assay is described as follows: endothelial migration and chemotaxis assays. Format: cell-based, human. The note with it: cancer cell-free system. The method, then:
Serum-starved HUVEC's were pulsed with Cell Tracker Red CMTPX dye for 45 minutes and seeded into HTS Fluoroblock trans-well inserts at a concentration of 1×10^5 HUVEC's in 0.5 mL starvation media per each insert. The assay was allowed to proceed for 16-18 hours at 37° C., and the inserts were processed and analyzed as described above (See Matrigel Invasion Assay).
HUVEC's were serum-starved in 0.2% FBS EGM-2 media for 16 hours and labeled with Cell Tracker Red CMTPX dye for 45 minutes. Meanwhile, the indicated amounts (1-5 μg) of recombinant human ApoE3 or BSA were mixed with 250 μL of matrigel (356231, BD Biosciences) and allowed to solidify at the bottom of a 24-well plate for 30 min. 250 μL of HUVEC EGM-2 media containing 0.2% FBS was then added to each matrigel-coated well, and […] HTS Fluoroblock inserts were fitted into each well. 1×10^5 HUVEC's, resuspended in 0.5 mL of starvation media, were seeded into each insert and allowed to migrate along the matrigel gradient for 16-18 hours at 37° C. Upon completion of the assay, the inserts were mounted on slides and analyzed as described above (See Matrigel Invasion Assay).

For assay [2], the system named is DNAJA4 expression in MeWo cells. The assay is described as follows: DNAJA4 mRNA expression by qRT-PCR in melanoma cells. Format: cell-based, human. The note with it: parental MeWo cells, 48 hours. The method, then:
Total RNA was extracted from various cell lines using the miRvana kit (AM1560, Applied Biosystems, Austin, Tex.). The expression levels of mature miRNAs were quantified using the Taqman miRNA expression assay (4427975-0002228, Applied Biosystems). RNU44 was used as an endogenous control for normalization. For mRNA expression analyses, 600 ng of total RNA was reverse transcribed using the cDNA First-Strand Synthesis Kit (18080-051, Invitrogen), and roughly 200 ng of the resulting cDNA was then mixed with SYBR green PCR Master Mix (4309155, Applied Biosystems) and the appropriate primers. Each reaction was performed in quadruplicate, and mRNA expression was quantified by performing real-time PCR amplification using an ABI Prism 7900HT Real-Time PCR System (Applied Biosystems). GAPDH was used as an endogenous control for normalization. The following primers were used: […]
Background: Real-time PCR tracks product formation cycle by cycle.

Assay [3] concerns MeWo brain metastatic derivative cells. The assay is described as follows: brain metastasis assay, intracardiac injection. The note with it: oral, diet 100 mg/kg. Format: in vivo, mouse. The method, then: Melanoma cells used for in vivo metastasis assays were transduced with a stably expressed retroviral construct encoding a luciferase reporter gene (Ponomarev et al., 2004), allowing us to monitor the in vivo progression of melanoma cells by bioluminescence imaging. The following numbers of melanoma cells, resuspended in 100 μL of PBS, were injected intravenously via the tail-vein: 4×10^4 MeWo cells, 2.5×10^5 HT-144 cells, 2×10^5 SK-Mel-334.2 cells, 5×10^4B 16F10 cells, and 1×10^5YUMM cells. The MeWo, HT-144, and SK-Mel-334.2 cells were injected into 6-8 week-old sex-matched NOD scid mice, while the B16F10 and YUMM cells were injected into 6-8 week-old sex-matched C57BL/6 mice. In all experiments assessing at the effects of GW3965 on metastasis formation, mice were pre-treated on a control diet or a GW3965-supplemented diet (20 mg/kg) for 10 days. To assess the effect of GW3965 treatment on brain metastasis, 1×10^5 MeWo brain-metastatic derivatives were injected intracardially into athymic nude mice. Immediately following injection, mice were randomly assigned to a control diet or GW3965-supplemented diet (100 mg/kg). […]

In assay [4] the test system is B-RafV600E/+; Pten−/−; CDKN2A−/− primary mouse melanoma cells. The assay is described as follows: B-RafV600E/+; Pten−/−; CDKN2A−/− melanoma cells in syngeneic mice. The format is in vivo. On the procedure: Melanoma cells used for in vivo metastasis assays were transduced with a stably expressed retroviral construct encoding a luciferase reporter gene (Ponomarev et al., 2004), allowing us to monitor the in vivo progression of melanoma cells by bioluminescence imaging. The following numbers of melanoma cells, resuspended in 100 μL of PBS, were injected intravenously via the tail-vein: 4×10^4 MeWo cells, 2.5×10^5 HT-144 cells, 2×10^5 SK-Mel-334.2 cells, 5×10^4B 16F10 cells, and 1×10^5YUMM cells. The MeWo, HT-144, and SK-Mel-334.2 cells were injected into 6-8 week-old sex-matched NOD scid mice, while the B16F10 and YUMM cells were injected into 6-8 week-old sex-matched C57BL/6 mice. […] To assess the effect of GW3965 treatment on brain metastasis, 1×10^5 MeWo brain-metastatic derivatives were injected intracardially into athymic nude mice. Immediately following injection, mice were randomly assigned to a control diet or GW3965-supplemented diet (100 mg/kg). To determine whether oral delivery of GW3965 can inhibit the progression of incipient metastasis, NOD Scid mice were intravenously injected with 4×10^4MeWo cells and the cells were allowed to colonize the lungs for 42 days, after which mice were blindedly assigned to a control diet or a GW3965-supplemented diet (100 mg/kg) treatment.

Counter-ions that a name gives are not always drawn.

Turning to “recombinant ApoE3: recombinant human ApoE3 (4696, BioVision)”, the “endothelial migration in trans-well and gradient-based chemotactic assay” value in assay [1] was “sufficient to inhibit”.

On to `O=C(O)Cc1cccc(OCCCN(Cc2cccc(C(F)(F)F)c2Cl)CC(c2ccccc2)c2ccccc2)c1` [GW3965 2, 3-[3-[N-(2-Chloro-3-trifluoromethylbenzyl)-(2,2-diphenylethyl)amino]propyloxy] phenylacetic acid hydrochloride], for which the “expression of DNAJA4” value in assay [2] is on record as “increased expression”. Besides, in assay [3], the brain colonization result was “inhibited” and the systemic dissemination result is reported as “inhibited”. Besides, the tumor growth result in assay [4] (chow 100 mg/kg) is recorded as “robustly inhibited”. Moreover, in assay [4] (diet 100 mg/kg), the lung metastasis entry is recorded as “robustly inhibited” and the overall survival entry is reported as “extended”.
